Data on one molecule can be found in patent US10822336B2, “Crystals of [2-(1-methyl-1H-pyrazol-4-yl)-6(morpholin-4-yl)-9H-purin-8-yl][4-(morpholin-4-yl)piperidin-1-yl]methanone and pharmaceutically acceptable salt thereof” (Daiichi Sankyo Company, Limited, priority 2016, dated 2020).

In series [1] the test system is HDM-induced chronic asthma (eosinophils in bronchoalveolar lavage fluid). Put plainly: House dust mite (HDM)-induced chronic asthma model of Balb/c mouse. It counts as in vivo. The settings on record: Eosinophil; bid, oral, third to fifth week, female Balb/c mouse, 48 hours after final HDM exposure. The procedure:
House Dust Mite (HDM)-Induced Chronic Asthma Model of Balb/c Mouse
The protocol used herein was described in Am. J. Respir. Crit. Care Med., 2004; 169: 378 to 385 pages.
A female Balb/c mouse was intranasally exposed to a purified HDM (Dermatophagoides pteronyssinus) extract at maximum for 5 successive weeks at a frequency of 5 days/week (protein (25 μg) in physiological saline (20 μl)). The compound (I) was orally administered twice a day from the third week to fifth week. Forty eight hours after the final HDM exposure, the animal was euthanized and bronchoalveolar lavage fluid was collected. The cell suspension was treated, and the absolute number of eosinophils were counted.

Series [2] deals with T1, PI3Kα (Homo sapiens, UniProt P42336).
T1 construct: purchased Proteros, Germany
T1 sequence (P42336 whole entry, species assumed): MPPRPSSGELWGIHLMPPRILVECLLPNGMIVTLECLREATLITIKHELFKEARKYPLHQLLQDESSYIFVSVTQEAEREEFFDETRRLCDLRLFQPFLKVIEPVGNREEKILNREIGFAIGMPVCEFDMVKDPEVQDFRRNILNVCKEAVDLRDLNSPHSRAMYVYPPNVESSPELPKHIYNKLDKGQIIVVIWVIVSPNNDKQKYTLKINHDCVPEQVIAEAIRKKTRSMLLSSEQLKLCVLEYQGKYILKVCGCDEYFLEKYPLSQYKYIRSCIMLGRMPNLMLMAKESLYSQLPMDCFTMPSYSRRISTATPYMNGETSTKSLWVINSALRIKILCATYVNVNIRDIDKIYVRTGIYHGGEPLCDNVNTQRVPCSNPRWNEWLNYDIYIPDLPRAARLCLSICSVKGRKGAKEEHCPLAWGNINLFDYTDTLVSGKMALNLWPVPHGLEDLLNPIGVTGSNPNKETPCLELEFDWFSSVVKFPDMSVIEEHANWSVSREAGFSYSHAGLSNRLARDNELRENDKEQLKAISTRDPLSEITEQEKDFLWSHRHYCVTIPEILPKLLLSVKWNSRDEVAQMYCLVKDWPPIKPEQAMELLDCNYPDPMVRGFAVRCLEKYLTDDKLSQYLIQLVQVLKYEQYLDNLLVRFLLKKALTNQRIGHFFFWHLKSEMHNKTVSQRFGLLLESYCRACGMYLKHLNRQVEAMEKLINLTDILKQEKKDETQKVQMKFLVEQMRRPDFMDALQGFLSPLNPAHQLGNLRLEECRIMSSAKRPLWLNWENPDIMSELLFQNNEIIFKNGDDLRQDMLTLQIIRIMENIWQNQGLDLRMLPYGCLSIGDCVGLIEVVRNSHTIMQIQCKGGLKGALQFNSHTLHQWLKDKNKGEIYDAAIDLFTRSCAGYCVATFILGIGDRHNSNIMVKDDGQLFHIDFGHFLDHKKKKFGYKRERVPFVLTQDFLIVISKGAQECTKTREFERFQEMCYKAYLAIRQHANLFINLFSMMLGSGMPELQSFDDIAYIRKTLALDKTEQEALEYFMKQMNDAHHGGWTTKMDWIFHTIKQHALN
T1 sequence (P27986 whole entry partner, species assumed): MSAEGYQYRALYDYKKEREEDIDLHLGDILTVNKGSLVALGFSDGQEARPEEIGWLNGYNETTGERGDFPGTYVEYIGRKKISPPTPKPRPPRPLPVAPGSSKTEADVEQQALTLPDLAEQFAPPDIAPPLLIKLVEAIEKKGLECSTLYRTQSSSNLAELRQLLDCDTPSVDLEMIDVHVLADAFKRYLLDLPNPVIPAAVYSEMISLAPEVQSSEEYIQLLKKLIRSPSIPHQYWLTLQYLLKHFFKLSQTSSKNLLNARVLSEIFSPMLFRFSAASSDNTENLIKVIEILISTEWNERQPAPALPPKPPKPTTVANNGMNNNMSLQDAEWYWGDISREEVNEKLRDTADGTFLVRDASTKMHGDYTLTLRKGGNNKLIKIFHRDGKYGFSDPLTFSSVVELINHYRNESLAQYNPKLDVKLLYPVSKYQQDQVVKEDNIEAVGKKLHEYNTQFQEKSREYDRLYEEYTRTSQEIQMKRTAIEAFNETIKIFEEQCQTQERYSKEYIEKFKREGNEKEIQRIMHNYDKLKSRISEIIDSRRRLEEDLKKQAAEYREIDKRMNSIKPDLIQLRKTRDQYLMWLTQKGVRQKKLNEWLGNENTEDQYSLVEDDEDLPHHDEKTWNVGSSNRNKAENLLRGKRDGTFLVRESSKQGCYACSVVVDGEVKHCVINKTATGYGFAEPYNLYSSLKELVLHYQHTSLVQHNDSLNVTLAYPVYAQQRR
Put plainly: In-vitro enzyme assay (Kinase-Glo luminescent kinase assay), PI3Kα. It counts as biochemical. The settings on record: enzyme 2.29 μg/mL, ATP 10 μM, PIP2 60 μM, 2 hours; read-out: inhibitory activity (IC50) against PI3Kα. The procedure:
(§1) A Kinase-Glo luminescent kinase assay kit (manufactured by Promega) was used for measuring kinase activity. In this assay, the amount of ATP remaining in a solution after a kinase reaction was measured. To confirm the effect of a compound on PI3Kδ inhibition, 2.29 μg/ml recombinant PI3Kδ enzyme (Proteros, Germany) was added to a reaction mixture containing 10 mM MgCl2, 5 mM DTT, 60 μM phosphatidylinositol diphosphate (PIP2) and an assay buffer (containing 50 mM HEPES, pH7.4, 50 mM NaCl, 0.05% CHAPS) supplemented with 10 μM ATP in a final volume of 15 μl/well, in the presence and absence of compound (I), in a 384-well plate. The reaction mixture was incubated at room temperature for 2 hours. At the end of the incubation period, the same volume of Kinase-Glo plus (Promega, V3772) was added per well. After the reaction mixture was incubated at room temperature for 10 minutes in a dark place, emission was measured. The results were calculated by measuring the emission unit of the test sample relative to a blank containing no enzyme.
(§2) Using specific recombinant enzymes (Proteros, Germany) PI3Kα, PI3Kβ and PI3Kγ, inhibitory activities of compound (I) against each of the kinases were examined. The assay conditions of kinases (PI3Kα, PI3Kβ, PI3Kγ and PI3Kδ) were as follows.

Series [3] deals with Ovalbumin-induced airway eosinophilia. Put plainly: Ovalbumin-induced airway eosinophilia model in Brown Norway rat. Type of series: in vivo. The settings on record: Eosinophil; bid, oral gavage, male Brown Norway rat, 48 hours after ovalbumin challenge; read-out: ED50 value (eosinophils in bronchoalveolar lavage fluid). The procedure:
Ovalbumin-Induced Airway Eosinophilia Model in Brown Norway Rat
The protocol used herein was described in Clin. Exp. Immunol., 2001; 126: 9 to 15 pages and J. Pharmacol. Exp. Ther., 2011; 337: 145 to 54 pages.
A male Brown Norway rat was sensitized by intraperitoneally injecting a suspension (in 0.9% physiological saline sterilized) of ovalbumin (1 mg) and aluminum hydroxide (100 mg) on Day 0 and Day 7. On Day 14, the compound (I) was administered to the rat by oral gavage. One hour after the oral administration, the animal was housed in a Perspex chamber and exposed to 5% ovalbumin aerosol for 10 minutes. The compound (I) was administered once or twice a day on Day 14 and Day 15. Forty eight hours after ovalbumin challenge, the animal was euthanized and bronchoalveolar lavage fluid was collected. The cell suspension was treated, and the absolute number of eosinophils were counted.

A short description of series [4]: Method for examining solubility (JP1, JP2). Type of series: physicochemical. The settings on record: pH 1.2, simulated gastric fluid, thermodynamic from solid; Solution 1 (JP1) according to the Japanese Pharmacopoeia, room temperature. The procedure: Method for Examining Solubility
A 10 mmol/L solution of the compound (I) in DMSO was prepared. The 10 mmol/L DMSO stock solution (100 μL) was dispensed to two labelled glass tubes: one for Solution 1 (JP1) according to the Japanese Pharmacopoeia and the other for Solution 2 (JP2) according to the Japanese Pharmacopoeia. DMSO was allowed to evaporate from each of the glass tubes, JP1 and JP2 solutions (500 μL) were added in the corresponding glass tubes. These glass tubes were ultrasonically treated for one minute and placed on a shaker for 30 minutes every 5 minutes at the intervals of 30 seconds. The glass tubes were placed in a dark place at room temperature for one hour and the solutions were filtered through a membrane filter. The filtrates were diluted 2 and 10 fold. The resultant test solutions were analyzed and quantified with UPLC (standard product: a 10 mmol/L solution in DMSO was serially diluted with a 50% aqueous acetonitrile solution to prepare two solutions: a 100 μmol/L standard solution and a 5 μmol/L standard solution) relative to the standard.

For series [5], the target named is T2, PI3Kγ (Homo sapiens, UniProt P48736).
T2 construct: purchased Proteros, Germany
T2 sequence (P48736 whole entry, species assumed): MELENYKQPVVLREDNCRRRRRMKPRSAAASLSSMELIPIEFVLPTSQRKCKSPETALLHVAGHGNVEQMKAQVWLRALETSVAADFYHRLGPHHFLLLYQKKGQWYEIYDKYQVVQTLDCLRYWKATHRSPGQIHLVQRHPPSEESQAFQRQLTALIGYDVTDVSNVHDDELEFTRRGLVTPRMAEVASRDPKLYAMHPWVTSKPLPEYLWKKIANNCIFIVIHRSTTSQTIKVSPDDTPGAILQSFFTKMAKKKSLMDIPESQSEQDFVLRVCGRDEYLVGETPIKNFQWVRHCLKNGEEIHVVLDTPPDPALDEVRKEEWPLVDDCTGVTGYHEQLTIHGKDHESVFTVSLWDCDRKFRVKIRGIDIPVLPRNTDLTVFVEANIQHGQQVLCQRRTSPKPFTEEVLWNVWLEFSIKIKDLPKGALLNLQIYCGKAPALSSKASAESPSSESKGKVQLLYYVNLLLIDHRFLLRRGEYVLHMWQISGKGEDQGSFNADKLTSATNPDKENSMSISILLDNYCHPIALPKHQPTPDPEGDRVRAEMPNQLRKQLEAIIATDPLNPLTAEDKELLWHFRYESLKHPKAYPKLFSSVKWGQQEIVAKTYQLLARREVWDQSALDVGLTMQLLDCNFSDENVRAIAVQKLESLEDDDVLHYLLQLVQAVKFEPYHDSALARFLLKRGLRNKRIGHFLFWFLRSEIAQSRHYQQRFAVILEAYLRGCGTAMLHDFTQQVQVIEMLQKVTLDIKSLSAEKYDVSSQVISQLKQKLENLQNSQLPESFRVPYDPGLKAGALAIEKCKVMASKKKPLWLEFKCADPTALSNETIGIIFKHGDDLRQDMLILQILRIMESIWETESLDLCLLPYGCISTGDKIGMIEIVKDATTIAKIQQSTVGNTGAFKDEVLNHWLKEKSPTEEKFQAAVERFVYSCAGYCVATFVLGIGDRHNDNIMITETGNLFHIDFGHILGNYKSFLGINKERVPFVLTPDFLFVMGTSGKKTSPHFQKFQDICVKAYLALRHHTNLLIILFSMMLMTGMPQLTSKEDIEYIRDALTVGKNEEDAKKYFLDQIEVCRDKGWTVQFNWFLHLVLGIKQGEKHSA
The experiment in a line: In-vitro enzyme assay (Kinase-Glo luminescent kinase assay), PI3Kγ. It counts as biochemical. The conditions noted are these: enzyme 2.29 μg/mL, ATP 10 μM, PIP2 60 μM, 2 hours; read-out: inhibitory activity (IC50) against PI3Kγ. As for the experimental part:
as §1, §2

Series [6] deals with mitogen-induced IFN-γ release in mouse splenocytes. The experiment in a line: Phytohaemagglutinin (PHA) inducible interferon (IFN)-gamma release in mouse splenocytes. It counts as cell-based. The settings on record: Splenocyte; C57BL/6 mouse splenocytes, PHA 10 μg/ml, 48 hours, ELISA; read-out: activity (IC50), inhibition of IFN-γ release. The procedure:
Phytohaemagglutinin (PHA) Inducible Interferon (IFN)-Gamma Release in Mouse Splenocytes
In a cell based assay system, the effect of a compound on mitogen-induced IFN-γ release in mouse splenocytes was evaluated [Blood (2010) 115: 2203 to 2213 pages; Current Protocols in Immunology (2004) 3.12.1 to 3.12.20].
Mouse splenocytes were obtained from the spleen of a C57BL/6 mouse and seeded in a 96-well tissue culture plate at a density of 250,000 cells/well. The splenocytes were treated with the compound (I), and thereafter, stimulated with PHA (10 μg/ml) for 48 hours. In this manner, an effect of compound (I) on inhibition of IFN-γ release was evaluated. The IFN-γ release in the cell culture supernatant was quantified by ELISA in accordance with the manufacturer's protocol (BD Biosciences, #555138).

Series [7] deals with T3, PI3Kβ (Homo sapiens, UniProt P42338).
T3 construct: purchased Proteros, Germany
T3 sequence (P42338 whole entry, species assumed): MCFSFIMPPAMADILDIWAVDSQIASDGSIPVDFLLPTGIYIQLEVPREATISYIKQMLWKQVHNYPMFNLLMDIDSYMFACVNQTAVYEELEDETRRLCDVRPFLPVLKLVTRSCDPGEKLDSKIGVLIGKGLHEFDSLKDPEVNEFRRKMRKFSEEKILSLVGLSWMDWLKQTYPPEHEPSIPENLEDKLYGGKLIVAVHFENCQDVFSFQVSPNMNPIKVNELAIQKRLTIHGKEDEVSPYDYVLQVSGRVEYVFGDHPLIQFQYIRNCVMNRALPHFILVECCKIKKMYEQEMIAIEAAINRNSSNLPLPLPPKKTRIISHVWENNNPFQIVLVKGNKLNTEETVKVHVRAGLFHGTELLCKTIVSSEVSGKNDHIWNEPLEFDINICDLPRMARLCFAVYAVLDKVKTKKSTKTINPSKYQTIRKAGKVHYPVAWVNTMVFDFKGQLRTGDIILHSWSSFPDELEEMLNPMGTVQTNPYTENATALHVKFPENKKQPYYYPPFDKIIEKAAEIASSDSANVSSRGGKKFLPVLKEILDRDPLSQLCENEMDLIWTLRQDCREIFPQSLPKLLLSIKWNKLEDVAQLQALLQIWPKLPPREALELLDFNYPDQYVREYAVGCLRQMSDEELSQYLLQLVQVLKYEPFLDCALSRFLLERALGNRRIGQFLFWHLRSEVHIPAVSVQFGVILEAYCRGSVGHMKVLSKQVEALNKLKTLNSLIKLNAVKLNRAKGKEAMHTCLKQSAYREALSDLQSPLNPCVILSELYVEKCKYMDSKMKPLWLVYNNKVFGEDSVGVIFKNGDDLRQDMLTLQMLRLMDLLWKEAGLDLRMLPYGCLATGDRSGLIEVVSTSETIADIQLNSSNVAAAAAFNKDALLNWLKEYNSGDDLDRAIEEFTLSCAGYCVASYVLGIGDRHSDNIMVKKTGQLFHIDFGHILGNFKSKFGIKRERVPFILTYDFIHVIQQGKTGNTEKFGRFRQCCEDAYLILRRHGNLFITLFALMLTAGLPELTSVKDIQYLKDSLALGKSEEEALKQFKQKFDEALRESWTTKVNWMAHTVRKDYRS
T3 sequence (P27986 whole entry partner, species assumed): as the sequence (P27986 whole entry partner, species assumed) above
Put plainly: In-vitro enzyme assay (Kinase-Glo luminescent kinase assay), PI3Kβ. It counts as biochemical. The conditions noted are these: enzyme 2.29 μg/mL, ATP 10 μM, PIP2 60 μM, 2 hours; read-out: inhibitory activity (IC50) against PI3Kβ. The procedure:
as §1, §2

Series [8] is described as follows: Oral bioavailability (BA) in rats. It counts as in vivo. The conditions noted are these: plasma; female Wistar rat, 10.0 mg/kg oral vs 3.0 mg/kg intravenous. As for the experimental part: Oral Bioavailability (BA) in Rats
(§3) To a female Wistar rat (210±10 g), the compound (I) was intravenously administered as a solution containing the compound (I) (2.0 mg/mL) in a vehicle containing polysorbate and dextrose (pH5.0) or orally as a suspension of the compound (I) (1.0 mg/mL) in methyl cellulose. The final dosage in the case of intravenous administration was 3.0 mg/body weight (1 kg) or that in the case of oral administration was 10.0 mg/body weight (1 kg). A plasma sample was analyzed for the compound (I) by the LC-MS/MS method. Pharmacokinetic parameters were estimated by moment analysis. WinNonlin software 6.1 (Pharsight) was used for estimating the PK parameters. Oral bioavailability was calculated based on dose-normalized oral exposure and intravenous plasma exposure amounts.

The nature of series [9]: Oral bioavailability (BA) in mice. It counts as in vivo. The conditions noted are these: plasma; male Swiss mouse, 10.0 mg/kg oral vs 3.0 mg/kg intravenous. As for the experimental part:
Oral Bioavailability (BA) in Mice
as §3, with “male Swiss mouse (23±3” for “female Wistar rat (210±10”, “(0.3” for “(2.0”

Consider `Cn1cc(-c2nc(N3CCOCC3)c3nc(C(=O)N4CCC(N5CCOCC5)CC4)[nH]c3n2)cn1` [compound (I), [2-(1-methyl-1H-pyrazol-4-yl)-6-(morpholin-4-yl)-9H-purin-8-yl][4-(morpholin-4-yl)piperidin-1-yl]methanone], for which the ED50 came out at 0.1 mg/kg in [1] and 0.3 mg/kg in series [3]. Also, the IC50 is at least 1000 nM in [2], at least 1000 nM in series [5], 6 nM in series [6] and at least 10000 nM in series [7]. The molecule further displayed a solubility at 30 min in [4] of at least 1200 µg/mL. The bioavailability worked out at 88% in [8] and 100% in [9].
